BindingDB's records for doi:10.1016/j.bmcl.2019.126715 (Merck, 2020)
pIC50: −log10 of the molar value.

Target: Proto-oncogene tyrosine-protein kinase Src (Homo sapiens) (UniProt P12931)
Assay: Inhibition of recombinant full length human SRCN1 expressed in baculovirus expression system using tyrosine-2 peptide as substrate incubated for 60 mins in presence of ATP by Z'-LYTE assay

Sequence of Proto-oncogene tyrosine-protein kinase Src (Homo sapiens) (P12931 whole entry, looked up): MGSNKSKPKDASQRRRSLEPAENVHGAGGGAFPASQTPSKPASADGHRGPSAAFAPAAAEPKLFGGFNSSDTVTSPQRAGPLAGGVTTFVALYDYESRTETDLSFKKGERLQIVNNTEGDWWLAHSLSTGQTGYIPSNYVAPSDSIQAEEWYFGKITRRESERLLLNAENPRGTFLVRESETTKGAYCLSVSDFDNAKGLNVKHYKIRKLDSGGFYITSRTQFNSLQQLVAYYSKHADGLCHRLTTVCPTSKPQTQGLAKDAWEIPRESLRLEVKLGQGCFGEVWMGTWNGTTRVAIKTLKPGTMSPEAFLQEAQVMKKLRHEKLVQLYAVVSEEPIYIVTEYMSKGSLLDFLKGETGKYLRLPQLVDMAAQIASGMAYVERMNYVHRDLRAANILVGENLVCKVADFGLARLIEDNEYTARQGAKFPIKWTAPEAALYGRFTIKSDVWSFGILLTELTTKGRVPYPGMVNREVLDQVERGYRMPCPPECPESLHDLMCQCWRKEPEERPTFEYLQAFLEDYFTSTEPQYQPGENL

pIC50: < 4.00
Structure (SMILES): C[C@@H]1C[C@H]1C(=O)N1CCN(c2cnc(C#N)c(-c3cnn(C)c3)n2)C[C@H]1C
